Source: the supplement of paper PMC10307832

Experiments:
Experiment in all cases: relative viability (nuclei count vs DMSO), 5 days (fraction); higher = more cells survive
Sunitinib + Palbociclib = compound: CCN(CC)CCNC(=O)c1c(C)[nH]c(/C=C2\C(=O)Nc3ccc(F)cc32)c1C [Sunitinib] + CC(=O)c1c(C)c2cnc(Nc3ccc(N4CCNCC4)cn3)nc2n(C2CCCC2)c1=O [Palbociclib] (partner 0.5 µM)
Summary of the method: (§1)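 Lung cancer cell lines were pin-tool dosed in 1536-well plates on the day after seeding, with either a lone drug or a fixed anchor-drug dose plus five library-drug doses (not always all listed) in √10 steps. Nuclei were counted on 4× images after 5 days. Relative viability is the ratio of treated-well to vehicle-well nuclei counts, with each value a median of duplicate plates.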

Sunitinib + Bortezomib = compound: CCN(CC)CCNC(=O)c1c(C)[nH]c(/C=C2\C(=O)Nc3ccc(F)cc32)c1C [Sunitinib] + CC(C)C[C@H](NC(=O)[C@H](Cc1ccccc1)NC(=O)c1cnccn1)B(O)O [Bortezomib] (partner 0.002 µM)
Summary of the method: as §1

Sunitinib + Alpelisib = compound: CCN(CC)CCNC(=O)c1c(C)[nH]c(/C=C2\C(=O)Nc3ccc(F)cc32)c1C [Sunitinib] + Cc1nc(NC(=O)N2CCC[C@H]2C(N)=O)sc1-c1ccnc(C(C)(C)C(F)(F)F)c1 [Alpelisib] (partner 2 µM)
Summary of the method: as §1

Sunitinib + Dasatinib = compound: CCN(CC)CCNC(=O)c1c(C)[nH]c(/C=C2\C(=O)Nc3ccc(F)cc32)c1C [Sunitinib] + Cc1nc(Nc2ncc(C(=O)Nc3c(C)cccc3Cl)s2)cc(N2CCN(CCO)CC2)n1 [Dasatinib] (partner 0.075 µM)
Summary of the method: as §1

Cell Line | relative viability (Sunitinib + Palbociclib; first compound 0.02 µM) | relative viability (Sunitinib + Palbociclib; first compound 0.06325 µM) | relative viability (Sunitinib + Palbociclib; first compound 0.2 µM) | relative viability (Sunitinib + Palbociclib; first compound 0.6325 µM) | relative viability (Sunitinib + Palbociclib; first compound 2 µM) | relative viability (Sunitinib + Bortezomib; first compound 0.02 µM) | relative viability (Sunitinib + Bortezomib; first compound 0.06325 µM) | relative viability (Sunitinib + Bortezomib; first compound 0.2 µM) | relative viability (Sunitinib + Bortezomib; first compound 0.6325 µM) | relative viability (Sunitinib + Bortezomib; first compound 2 µM) | relative viability (Sunitinib + Alpelisib; first compound 0.02 µM) | relative viability (Sunitinib + Alpelisib; first compound 0.06325 µM) | relative viability (Sunitinib + Alpelisib; first compound 0.2 µM) | relative viability (Sunitinib + Alpelisib; first compound 0.6325 µM) | relative viability (Sunitinib + Alpelisib; first compound 2 µM) | relative viability (Sunitinib + Dasatinib; first compound 0.02 µM) | relative viability (Sunitinib + Dasatinib; first compound 0.06325 µM) | relative viability (Sunitinib + Dasatinib; first compound 0.2 µM) | relative viability (Sunitinib + Dasatinib; first compound 0.6325 µM) | relative viability (Sunitinib + Dasatinib; first compound 2 µM)
NCI-H647 | 0.328 | 0.398 | 0.406 | 0.43 | 0.316 | 0.936 | 1.29 | 1.4 | 1.03 | 0.923 | 1.05 | 1.04 | 1.36 | 1.21 | 0.82 | 0.164 | 0.291 | 0.228 | 0.183 | 0.161
NCI-H1944 | 0.337 | 0.317 | 0.378 | 0.346 | 0.339 | – | – | – | – | – | 0.798 | 0.883 | 1.02 | 0.964 | – | 0.205 | 0.246 | 0.211 | 0.239 | 0.211
NCI-H3122 | 0.159 | 0.189 | 0.213 | 0.176 | 0.207 | 1.01 | 1.01 | – | 0.985 | 0.985 | – | 0.894 | 0.84 | 0.725 | 0.803 | 0.725 | 0.985 | 0.84 | 0.932 | 0.853
HCC-15 | 0.707 | 0.737 | 0.792 | 0.696 | 0.715 | 0.941 | 1.16 | 1.17 | 1.02 | 1.05 | 0.831 | – | 1.01 | 0.872 | 0.94 | 0.549 | 0.709 | 0.726 | 0.66 | 0.598
NCI-H1993 | 0.635 | 0.7 | 0.687 | 0.815 | 0.622 | 1.1 | 1.34 | 1.36 | – | 1.04 | 0.674 | 0.697 | 0.716 | 0.689 | 0.68 | 0.735 | 0.545 | 0.779 | 0.654 | 0.645
NCI-H1755 | 0.423 | 0.46 | 0.49 | 0.459 | 0.468 | 0.992 | 1.02 | 1.04 | 0.93 | – | 0.938 | 0.915 | 1.01 | 0.94 | – | 0.41 | 0.46 | 0.441 | 0.424 | 0.448
NCI-H2342 | 0.446 | 0.541 | 0.566 | 0.549 | 0.579 | – | – | – | – | – | – | – | – | – | – | 0.327 | 0.288 | 0.301 | 0.338 | 0.336
COR-L 105 | 0.431 | 0.399 | 0.436 | 0.405 | 0.458 | 0.977 | 0.877 | 0.923 | 1.01 | 0.823 | 0.925 | 0.835 | 1.04 | 1.23 | 0.829 | 0.316 | 0.361 | 0.286 | 0.379 | 0.543
SK-LU-1 | 0.381 | 0.4 | 0.4 | 0.411 | 0.356 | 0.959 | 1.26 | 1.38 | 1.36 | 0.982 | 0.863 | 1.25 | 1.12 | 1.09 | 0.669 | 0.179 | 0.185 | 0.176 | 0.171 | 0.161
NCI-H2228 | 0.829 | 0.942 | 1.15 | 1.16 | 0.693 | 1.04 | 1.14 | 1.22 | 1.15 | 1 | 0.735 | 0.729 | 1 | 0.717 | 0.538 | 0.526 | 0.607 | 0.613 | 0.494 | 0.408
NCI-H1395 | 0.638 | 0.625 | 0.649 | 0.745 | 0.619 | – | – | – | – | – | 0.995 | 1.14 | 1.72 | 1.31 | 1.05 | 0.394 | 0.463 | 0.453 | 0.406 | 0.266
NCI-H1648 | 0.257 | 0.328 | 0.239 | 0.279 | 0.308 | – | – | – | – | – | – | – | – | – | – | – | – | – | – | –
NCI-H650 | 0.298 | 0.338 | 0.308 | 0.355 | 0.396 | 0.884 | 0.819 | 0.916 | 1.03 | 1.09 | 0.891 | 0.608 | 1.25 | 1.14 | 1.16 | 0.491 | 0.523 | 0.41 | 0.533 | 0.476
A549 | – | – | – | – | – | – | – | – | – | – | 0.686 | 0.825 | 0.884 | 0.872 | 0.776 | – | – | – | – | –
LC-2-ad | 0.491 | 0.481 | 0.593 | 0.48 | 0.42 | 0.883 | 1.04 | 1.05 | 1.07 | 0.932 | 0.897 | 0.613 | – | 0.891 | 0.605 | 0.621 | 0.599 | 0.872 | 0.558 | 0.403
EMC-BAC-2 | 0.505 | 0.534 | 0.526 | 0.556 | 0.579 | 1.06 | 1.14 | 1.26 | 1.05 | 1.12 | 0.712 | 0.742 | 0.901 | 0.791 | 0.72 | 0.318 | 0.336 | 0.383 | 0.344 | 0.36
EBC-1 | – | – | – | – | – | 0.475 | 0.573 | 0.65 | 0.532 | 0.534 | 0.857 | 0.971 | 0.871 | 0.87 | 1 | – | – | – | – | –
NCI-H1975 | 0.531 | 0.715 | 0.76 | 0.727 | 0.473 | 0.401 | 0.448 | 0.401 | 0.438 | 0.406 | 0.597 | 0.686 | 0.669 | 0.677 | 0.381 | 0.36 | 0.403 | 0.399 | 0.423 | 0.344
NCI-H2405 | 0.495 | 0.581 | 0.546 | 0.494 | 0.587 | 0.997 | 0.924 | 1.09 | 1.08 | 1 | 0.816 | 0.811 | 0.862 | 1.06 | 0.713 | 0.214 | 0.206 | 0.224 | 0.23 | 0.212
